Measured values from paper PMC9259591, “Irigenin, a novel lead from Iris confusa for management of Helicobacter pylori infection with selective COX-2 and HpIMPDH inhibitory potential” (Scientific Reports, 2022).
Where “and” joins values, the source holds several entries; their conditions need not be identical. Equal entries are not always repeated.

Key:
H. pylori ATCC 700392 = experiment: anti-Helicobacter pylori activity, microwell dilution method with MTT; type: cell-based
Experimental: The anti-Helicobacter pylori activity of the PF and NPF as well as the isolated compounds was evaluated against H. pylori ATCC 700392 (type strain, obtained from the American Type Culture Collection unit (ATCC), using microwell dilution method and clarithromycin as standard drug[37]. The detailed procedures were described in the supplementary file.
The anti-Helicobacter pylori activity of the PF and NPF as well as the isolated compounds was evaluated against H. pylori ATCC 700392 (a type strain, obtained from the American Type Culture Collection unit (ATCC), using microwell dilution method and clarithromycin as standard drug ^1. The tested samples were prepared in dimethyl sulfoxide and successive ten twofold dilutions (125- 0.24 µg/mL) were carried out in a 96-well plate. Each microplate well included forty μL of Brain Heart Infusion growth medium and 10% fetal bovine serum (FBS), ten μL of inoculum and fifty μL of the tested sample. The plates were incubated for 3 days, in 5% oxygen, 10% carbon dioxide, 85 % nitrogen atmosphere at 37°C. Forty μL of 3- (4, 5-dimethyl-thiazol-2-yl)- 2,5-diphenyl-tetrazolium bromide (MTT) at a final concentration of 0.5 mg/mL freshly prepared in H2O was added to each well and incubated for 30 min. The bacteria were biologically active when change to purple color was observed ^1. While no change in MTT color indicated inhibition. Solvent control (DMSO) and the standard antibiotic (clarithromycin) were used as negative and positive controls, respectively. The H. pylori inhibition % was calculated using the given formula:
% Inhibition = Abs control – Abs sample × 100 /Abs control.

[1] = molecular target: T1, H. pylori inosine-5′-monophosphate dehydrogenase (HpIMPDH) (Helicobacter pylori, UniProt P56088); experiment: In vitro HpIMPDH inhibition assay (NADH fluorescence); type: biochemical; design: HpIMPDH inhibitory activity: unit not given here
T1 sequence (P56088 1-481): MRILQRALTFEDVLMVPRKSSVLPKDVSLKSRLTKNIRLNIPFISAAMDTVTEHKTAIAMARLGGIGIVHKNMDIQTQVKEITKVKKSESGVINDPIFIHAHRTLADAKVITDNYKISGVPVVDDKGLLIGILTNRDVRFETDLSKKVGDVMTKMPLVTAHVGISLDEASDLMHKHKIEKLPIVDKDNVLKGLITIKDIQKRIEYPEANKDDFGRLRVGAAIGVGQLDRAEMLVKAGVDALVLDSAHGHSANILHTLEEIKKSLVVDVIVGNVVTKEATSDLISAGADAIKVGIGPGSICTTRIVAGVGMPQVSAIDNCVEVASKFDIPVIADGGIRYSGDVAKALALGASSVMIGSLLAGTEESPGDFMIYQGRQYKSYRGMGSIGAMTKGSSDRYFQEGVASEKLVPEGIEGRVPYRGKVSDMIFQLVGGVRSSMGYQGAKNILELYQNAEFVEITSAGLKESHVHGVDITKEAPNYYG
Experimental: The assay was carried out according to Galal[40] and was described in detail in the supplementary file.
(§1) Thus, irigenin was selected to test its HpIMPDH inhibitory activity by monitoring NADH production at concentration range of 10–0.078 µM compared to clarithromycin as standard drug. Also, to examine irigenin selectivity toward the bacterial IMPDH, human hIMPDH2 inhibition potential was assayed.
The assay was carried out in a final volume of two hundred μL in black 96-well plate (Tarsons Products Pvt. Ltd., Kolkata, India) with a reaction buffer composed of one hundred mM KCl, fifty mM Tris–HCl (pH 8.6), and one mM dithiothreitol (DTT). One hundred nM H. pylori inosine-5′-monophosphate dehydrogenase (HpIMPDH) in the presence/absence of the tested compound were used. The assay mixture was then incubated at 37 °C for 10 min, and the reaction was initiated by the adding 250 μM of inosine 5ʹ‐monophosphate (IMP) and 300 μM of nicotinamide adenine dinucleotide (NAD^+) substrate buffer. The assay was allowed to proceed for 45 min at 37 °C.
The formed NADH was measured by recording the fluorescence (excitation 340 nm, emission 440 nm) using PerkinElmer EnVision Multilabel Reader (Waltham, MA) at an interval of one min. DMSO and clarithromycin were used as vehicle control and positive control, respectively. The concentration of the tested sample leading to 50% HpIMPDH inhibition (IC50) was estimated.

[2] = molecular target: T2, Human inosine-5′-monophosphate dehydrogenase (hIMPDH2) (Homo sapiens, UniProt P12268); experiment: In vitro hIMPDH2 inhibition assay (NADH absorbance at 340 nm); type: biochemical; design: key to hIMPDH2 inhibitory activity: % hIMPDH2 inhibition; conditions: for hIMPDH2 inhibitory activity: in % (unit assumed)
T2 construct: purchased NovoCIB SAS (Lyon, France)
Experimental: Human inosine-5′-monophosphate dehydrogenase (hIMPDH2) was purchased from NovoCIB SAS (Lyon, France). […] The detailed procedures were described in the supplementary file.
as §1
Human inosine-5′-monophosphate dehydrogenase (hIMPDH2) was purchased from NovoCIB SAS (Lyon, France). […] The assay was carried out in 96-well plates (Tarsons, 980040). The reaction buffer consisted of hundred mM KCl, hundred mM Tris–HCl (pH 8.6), and five mM DTT, 4% v/v DMSO with or without the tested compound and 0.15 mU of purified hIMPDH2 enzyme per well (from 1.5 mg/mL stock concentration). The enzyme stock solution final volume was 2 μL per well, which was insignificant to cause final assay buffer composition change. Addition of (substrate buffer) 0.2 mM of IMP and 0.2 mM of NAD^+ initiated the assay, then it was allowed to proceed for 30 min at 37 °C. The formed NADH was measured by reading the absorbance at 340 nm. […] The concentration of the tested sample leading to 50% hIMPDH2 inhibition (IC50) was estimated.

[3] = system: RAW 264.7 macrophage cell line (NO); experiment: nitric oxide (NO) inhibitory activity in lipopolysaccharide-stimulated macrophages; type: cell-based, murine; conditions: Mus musculus, RAW264.7; RAW 264.7 cells, 1 µg/mL lipopolysaccharide
Experimental: The detailed procedures were described in the supplementary file.
The cell was incubated at 37 °C in 5% carbon dioxide. RAW 264.7 cells were seeded onto a 96-well plate (1×10^5 cells/well) and incubated for 24 h. […] Followed by incubation, the cells stimulated with 1µg/mL of lipopolysaccharide for another 24 h. The supernatant was gently transferred to new 96-well plates and used for NO determination. L-N 6 - (1-iminoethyl) lysine hydrochloride), is used as standard drug. The absorbance (Abs) was measured in a microplate reader at 540 nm ^3. The percentage inhibition was calculated using the following formula:
Inhibition (%) = 1-[Control-Test] Control × 100.

ovine COX-1 = molecular target: T3, ovine COX-1 (Ovis aries, UniProt P05979); experiment: COX-1 inhibitory activity, colourimetric COX inhibitor screening assay kit; type: biochemical; conditions: ovine COX-1; read-out: IC50 (COX-1)
T3 construct: purchased
T3 sequence (P05979 25-600): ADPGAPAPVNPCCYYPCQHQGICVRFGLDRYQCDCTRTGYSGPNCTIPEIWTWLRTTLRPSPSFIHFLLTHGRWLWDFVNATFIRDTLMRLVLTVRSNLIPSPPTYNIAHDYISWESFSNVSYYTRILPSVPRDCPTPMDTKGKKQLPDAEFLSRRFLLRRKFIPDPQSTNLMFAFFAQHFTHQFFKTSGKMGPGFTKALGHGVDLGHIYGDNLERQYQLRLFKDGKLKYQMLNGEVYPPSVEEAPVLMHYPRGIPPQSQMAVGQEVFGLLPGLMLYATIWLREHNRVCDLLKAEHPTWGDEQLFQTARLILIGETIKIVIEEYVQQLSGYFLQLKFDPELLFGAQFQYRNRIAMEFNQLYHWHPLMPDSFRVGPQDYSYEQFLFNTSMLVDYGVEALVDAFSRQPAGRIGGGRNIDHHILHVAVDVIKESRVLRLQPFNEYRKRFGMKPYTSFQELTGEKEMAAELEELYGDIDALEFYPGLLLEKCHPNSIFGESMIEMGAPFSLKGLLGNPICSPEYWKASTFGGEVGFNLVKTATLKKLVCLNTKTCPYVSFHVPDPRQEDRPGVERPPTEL
Experimental: (§2) The inhibitory COX activity was assayed colourimetrically by examining the inhibition of the ovine COX-1 and human recombinant COX-2 enzymes as described by George et al.[38], using a COX inhibitor screening assay kit. The detailed procedures were described in the supplementary file.
(§3) The inhibitory COX activity was assayed colourimetrically by examining the inhibition of the ovine COX-1 and human recombinant COX-2 enzymes as described by George et al. ^2, using a COX inhibitory screening assay kit. This assay determines the COX peroxidase activity by monitoring the appearance of N,N,N',N'-tetramethyl-p-phenylenediamine (TMPD). Assay buffer (150 μL 0.1 M Tris–HCl pH 8.0), 10 μL heme and 10μL enzyme (COX-1 or COX-2) were added in each well. Ten μL of each tested sample concentration was added to each well and incubated for 15 minutes at 37°C. After incubation, 20 μL of TMPD was added to each well. For initiating the reaction, 10 μL 10 mM arachidonic acid was added and the plates were further incubated for another 2 minutes at 37°C. For terminating the reaction, 50 μL 1 N HCl and saturated stannous chloride were added.
(§4) Reaction mixture containing assay buffer and heme acted as the blank and a mixture with either COX-1 or COX-2 assay buffer and heme acted as the 100% initial activity (IA). […] The absorbances of oxidized TMPD (blue colour) were read in ELISA plate reader at 590 nm. The % inhibition was calculated using the following formula:
(§5) COX % Inhibition= [(100%IA−Inhibitor)/ 100% IA x 100]. Where, IA: 100% initial activity.
(§6) The concentration at which the tested sample produces 50% inhibition of COX-1 and/or COX-2 (IC50) was determined. The selectivity index (SI) was calculated also as IC50 (COX-1)/ (COX-2).

human recombinant COX-2 = molecular target: T4, human recombinant COX-2 (Homo sapiens, UniProt P35354); experiment: COX-2 inhibitory activity, colourimetric COX inhibitor screening assay kit; type: biochemical
T4 construct: purchased
T4 sequence (P35354 18-604): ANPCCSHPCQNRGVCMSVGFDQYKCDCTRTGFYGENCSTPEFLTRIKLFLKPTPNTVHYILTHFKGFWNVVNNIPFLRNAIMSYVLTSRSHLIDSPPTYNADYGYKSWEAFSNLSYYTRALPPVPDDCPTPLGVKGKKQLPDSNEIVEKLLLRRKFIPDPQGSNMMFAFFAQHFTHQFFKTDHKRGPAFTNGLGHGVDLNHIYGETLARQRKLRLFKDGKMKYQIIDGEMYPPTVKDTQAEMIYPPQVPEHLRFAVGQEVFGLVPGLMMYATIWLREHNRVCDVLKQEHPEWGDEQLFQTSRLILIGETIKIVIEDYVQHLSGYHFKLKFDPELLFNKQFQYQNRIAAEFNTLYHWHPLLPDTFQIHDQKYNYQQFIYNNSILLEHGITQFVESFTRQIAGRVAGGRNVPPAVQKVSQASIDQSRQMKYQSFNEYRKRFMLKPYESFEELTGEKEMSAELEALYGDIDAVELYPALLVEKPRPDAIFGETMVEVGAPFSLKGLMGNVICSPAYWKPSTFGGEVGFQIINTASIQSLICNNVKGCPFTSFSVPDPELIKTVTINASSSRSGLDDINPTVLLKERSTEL
Experimental: as §2, §3, §4, §5, §6

[4] = sample conc. 0.078 (range 10–0.078 µM)
[5] = sample conc. 0.156 (range 10–0.078 µM)
[6] = sample conc. 0.313 (range 10–0.078 µM)
[7] = sample conc. 0.625 (range 10–0.078 µM)
[8] = sample conc. 1.25 (range 10–0.078 µM)
[9] = sample conc. 2.5 (range 10–0.078 µM)
[10] = sample conc. 5 (range 10–0.078 µM)
[11] = sample conc. 10 (range 10–0.078 µM)

For `CC[C@H]1OC(=O)[C@H](C)[C@@H](O[C@H]2C[C@@](C)(OC)[C@@H](O)[C@H](C)O2)[C@H](C)[C@@H](O[C@@H]2O[C@H](C)C[C@H](N(C)C)[C@H]2O)[C@](C)(OC)C[C@@H](C)C(=O)[C@H](C)[C@@H](O)[C@]1(C)O` [Clarithromycin, clarithromycin, reference compound], the MIC (H. pylori ATCC 700392; Helicobacter pylori, ATCC700392, read-out: MIC (H. pylori)) was 1.95 µg/mL and 2.61 µM, the IC50 [1] was 0.51 ± 0.58 µM and the HpIMPDH inhibitory activity [1, 4] was 9.14 ± 1.70. It also gave a HpIMPDH inhibitory activity [1, 5] of 21.82 ± 2.10, a HpIMPDH inhibitory activity [1, 6] of 38.25 ± 1.50 and a HpIMPDH inhibitory activity [1, 7] of 56.06 ± 0.58. It also gave a HpIMPDH inhibitory activity [1, 8] of 69.31 ± 2.10, a HpIMPDH inhibitory activity [1, 9] of 81.22 ± 1.60 and a HpIMPDH inhibitory activity [1, 10] of 100 ± 0.00. The HpIMPDH inhibitory activity [1, 11] was 100 ± 0.00, the IC50 [2] was 3.1 ± 2.1 µM and the hIMPDH2 inhibitory activity [2, 4] was 0.00. For the same compound, the hIMPDH2 inhibitory activity [2, 5] was 0.00, the hIMPDH2 inhibitory activity [2, 6] was 9.74 ± 0.67 and the hIMPDH2 inhibitory activity [2, 7] was 19.35 ± 1.50. It also gave a hIMPDH2 inhibitory activity [2, 8] of 27.32 ± 1.70, a hIMPDH2 inhibitory activity [2, 9] of 46.32 ± 2.20 and a hIMPDH2 inhibitory activity [2, 10] of 60.24 ± 1.50. For the same compound, the hIMPDH2 inhibitory activity [2, 11] was 76.32 ± 0.50.
`CC(C)[C@H]1CC[C@H]2[C@@]1(C)CC[C@@]1(C)[C@@H]3CC[C@H]4C(C)(C)[C@@H](O)CC[C@]4(C)C3=CC[C@]21C` [Isoarborinol (N1), isoarborinol] was tested, and the “MIC (H. pylori)” value (H. pylori ATCC 700392; concentration required for 100% inhibition, H. pylori ATCC 700392, ND = not detected) was “no H. pylori inhibitory potential”, the IC50 [3] was 44.3 ± 1.7 µM and the IC50 (ovine COX-1) was 73.3 ± 1 µM. For the same compound, the IC50 (human recombinant COX-2; human recombinant COX-2) was 51.8 ± 2.1 µM and the “SI (COX-1/COX-2)” value (human recombinant COX-2; selectivity index calculated as IC50 (COX-1)/(COX-2)) was 1.42.
